Laboratory results as given in US8058242B2, “Chimeric proteins with natriuretic activity” (The University of Queensland, priority 2004, dated 2011).
Positions of bridges follow the written chain, without caps; N, C: chain ends. Non-standard residues stand in square brackets, D forms with d. Residues, ends and D or L forms follow the SMILES beside them. Cha = N[C@@H](CC1CCCCC1)C(=O)O

Legend:
[1] = tested on: denuded aortic rings, GC A receptor; assay: Relaxation of noradrenaline constricted endothelium-denuded aortic rings (Example 11); parameters: species or system rat; conditions: GC-A mediated
Experimental: Male Sprague Dawley rats were killed and the descending thoracic aorta rapidly removed and flushed with physiological solution. After being cleared of adhering fat and connective tissue, 5 mm rings were mounted under 10 g resting tension, between two stainless steel hooks, in organ baths (37° C.) containing carbogenated (95% O2 and 5% CO2) physiological salt solution of the following composition (mM): NaCl, 118.4; NaHCO3, 25; glucose, 11; KCl, 4.7; MgSO4, 1.2; KH2PO4, 1.2 and CaCl2, 2.5. The lower hook was attached to a tissue holder and the upper hook to a force displacement transducer (Grass FTO3). Where indicated endothelial cells were removed by gentle rubbing of the intimal surface with a wire. To confirm the presence or absence of endothelial cells, tissues were precontracted with a sub-maximal concentration of phenylephrine (0.3 μM) and the response to acetylcholine (ACh, 10 μM) observed. Ach-induced relaxation greater than 80% of maximum indicated the presence of endothelium; whereas Ach-induced relaxation less than 10% indicated the absence of endothelium. Ring preparations under resting tension were conditioned by two contraction/relaxation cycles with 40 mM KCl, contracted by a third application of 40 mM KCl and then relaxed with different doses of the venom peptides. Responses were expressed as a percentage relaxation of the precontraction by KCl.
In addition to the peptides tested in example 3, a series of 13 analogs corresponding to the 2a, 2b and 2c grouping of peptides were examined for their ability to dilate noradrenaline constricted aortic rings. The degree of constriction was expressed as a percentage of the KCl induced constriction. The aortic rings were prepared in a manner similar to the method described in example 3. […]. In each case there were at least 3 separate aortic rings tested per peptide and all were denuded of endothelium to ensure responses were confined to the GC A receptor.

conscious rabbits = assay: Blood pressure and heart rate in conscious rabbits, intravenous infusion dose-response (Example 8); conditions: for recovery of MAP, in words: 2 hours after infusion; for MAP at final dose / Recovery (MAP) / Recovery Delta SED (MAP) / Treatment Effect, change of mean blood pressure during the infusion: Table 10B; for Recovery (MAP) / Recovery Delta SED (MAP): after a 2 hour recovery period; for Treatment Effect, change of mean blood pressure during the infusion: final dose, groups 2B and 2C
[2] = biological target: T1, Natriuretic Peptide Receptor-A (NPR-A) signaling in MDCK cells (Canis lupus familiaris, UniProt A0A8I3MHU3); format: cell-based, canine; conditions: stimulation of cGMP accumulation in MDCK cells; for EC50: read-out: EC50 (M) ± Standard Error
T1 sequence (A0A8I3MHU3 32-1060): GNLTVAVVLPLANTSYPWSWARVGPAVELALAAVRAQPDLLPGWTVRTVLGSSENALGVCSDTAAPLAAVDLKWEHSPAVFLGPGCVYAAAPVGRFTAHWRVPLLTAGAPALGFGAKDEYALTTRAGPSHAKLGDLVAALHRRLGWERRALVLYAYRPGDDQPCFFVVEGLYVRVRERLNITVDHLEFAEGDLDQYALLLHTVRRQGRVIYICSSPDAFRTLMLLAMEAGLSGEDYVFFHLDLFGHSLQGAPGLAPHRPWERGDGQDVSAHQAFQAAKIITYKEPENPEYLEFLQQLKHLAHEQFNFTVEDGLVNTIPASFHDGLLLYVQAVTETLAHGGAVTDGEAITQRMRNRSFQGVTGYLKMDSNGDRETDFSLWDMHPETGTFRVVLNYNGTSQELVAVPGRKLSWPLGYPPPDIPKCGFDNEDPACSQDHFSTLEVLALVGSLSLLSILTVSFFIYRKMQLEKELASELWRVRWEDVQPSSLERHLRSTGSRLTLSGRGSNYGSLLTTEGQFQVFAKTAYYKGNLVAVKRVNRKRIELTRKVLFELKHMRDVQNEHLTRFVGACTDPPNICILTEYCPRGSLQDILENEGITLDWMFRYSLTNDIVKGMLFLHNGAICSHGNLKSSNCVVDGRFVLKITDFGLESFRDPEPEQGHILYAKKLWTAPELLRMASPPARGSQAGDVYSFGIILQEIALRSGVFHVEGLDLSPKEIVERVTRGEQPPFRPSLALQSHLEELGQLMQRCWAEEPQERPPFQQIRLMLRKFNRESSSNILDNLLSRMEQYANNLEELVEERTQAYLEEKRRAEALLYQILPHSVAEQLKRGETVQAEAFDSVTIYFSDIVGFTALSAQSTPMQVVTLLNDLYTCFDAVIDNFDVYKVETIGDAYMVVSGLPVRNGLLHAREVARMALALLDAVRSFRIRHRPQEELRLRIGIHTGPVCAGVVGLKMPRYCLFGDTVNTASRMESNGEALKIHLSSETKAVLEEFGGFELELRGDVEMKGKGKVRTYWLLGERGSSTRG

Row | SMILES | Mean relaxation SEM of denuded aortic rings expressed as % of KCl response [1] [%] | recovery of MAP, in words (conscious rabbits) | MAP at final dose (conscious rabbits) [mm Hg] | Recovery (MAP) (conscious rabbits) [mm Hg] | Recovery Delta SED (MAP) (conscious rabbits) [mm Hg] | Treatment Effect, change of mean blood pressure during the infusion (conscious rabbits) [mm Hg] | −Log10 EC50 (pEC50) ± Standard Error [2] | EC50 [2] [M]
1 | CC[C@H](C)[C@H](NC(=O)[C@H](CCCCN)NC(=O)[C@H](CO)NC(=O)[C@H](CC(=O)O)NC(=O)[C@@H](N)CO)C(=O)NCC(=O)N[C@@H](C)C(=O)NCC(=O)N[C@H]1CSSC[C@@H](C(=O)N[C@@H](CC(N)=O)C(=O)N[C@@H](CCCNC(=N)N)C(=O)N[C@H](C(=O)N[C@@H](CCSC)C(=O)N[C@@H](CCC(N)=O)C(=O)N[C@@H](CC(N)=O)C(=O)N2CCC[C@H]2C(=O)N2CCC[C@H]2C(=O)N[C@@H](CCCCN)C(=O)N[C@@H](CCCCN)C(=O)N[C@@H](Cc2ccccc2)C(=O)N[C@@H](CO)C(=O)NCC(=O)N[C@@H](CCC(=O)O)C(=O)O)[C@@H](C)CC)NC(=O)CNC(=O)[C@H](CC(C)C)NC(=O)CNC(=O)[C@H](CO)NC(=O)[C@H](C(C)C)NC(=O)[C@H](CO)NC(=O)CNC(=O)[C@H]([C@@H](C)CC)NC(=O)[C@H](CCCNC(=N)N)NC(=O)[C@H](CC(=O)O)NC(=O)[C@H](CC(C)C)NC(=O)[C@@H]2CCCN2C(=O)[C@H](Cc2ccccc2)NC(=O)CNC(=O)[C@H](Cc2ccccc2)NC1=O [TNPc A7] (H-SDSKIGAGCFGFPLDRIGSVSGLGCNRIMQNPPKKFSGE-OH; disulfide 9-25; N-terminus assumed) | 32.9 ± 4.5 | did not recover after 2 hours | 64.0 | 71.3 | 7.3 ± 2.9 | −11.2 | 6.867 ± 0.1915 | 1.61e-07
2 | CC[C@H](C)[C@H](NC(=O)[C@H](CCCCN)NC(=O)[C@H](CO)NC(=O)[C@H](CC(=O)O)NC(=O)[C@@H](N)CO)C(=O)NCC(=O)N[C@@H](CC(N)=O)C(=O)NCC(=O)N[C@H]1CSSC[C@@H](C(=O)N[C@@H](CC(N)=O)C(=O)N[C@@H](CCCNC(=N)N)C(=O)N[C@H](C(=O)N[C@@H](CCSC)C(=O)N[C@@H](CCC(N)=O)C(=O)N[C@@H](CC(N)=O)C(=O)N2CCC[C@H]2C(=O)N2CCC[C@H]2C(=O)N[C@@H](CCCCN)C(=O)N[C@@H](CCCCN)C(=O)N[C@@H](Cc2ccccc2)C(=O)N[C@@H](CO)C(=O)NCC(=O)N[C@@H](CCC(=O)O)C(=O)O)[C@@H](C)CC)NC(=O)CNC(=O)[C@H](CC(C)C)NC(=O)CNC(=O)[C@H](CO)NC(=O)[C@H](C(C)C)NC(=O)[C@H](CO)NC(=O)CNC(=O)[C@H]([C@@H](C)CC)NC(=O)[C@H](CCCNC(=N)N)NC(=O)[C@H](CC(=O)O)NC(=O)[C@H](CC(C)C)NC(=O)[C@@H]2CCCN2C(=O)[C@H](Cc2ccccc2)NC(=O)CNC(=O)[C@H](CC2CCCCC2)NC1=O [TNPc Cha-10] (H-SDSKIGNGC[Cha]GFPLDRIGSVSGLGCNRIMQNPPKKFSGE-OH; disulfide 9-25; N-terminus assumed) | 64.2 ± 4.2 | partially recovered | 67.3 | 76.5 | 9.1 ± 3.9 | −10.8 | 7.84 | 1.44e-08
